Experimental data as given in patent US10364226B2, “Pyridazinone compounds and uses thereof” (priority 2013, dated 2019).
pEC50, pIC50: −log10 of the molar value. Where two headings read alike, the source gives them in different places.

Columns and labels:
[1] = tested on: Influenza strain A549 A/WSN/33 (H1N1); test: Influenza Antiviral Assay; type: cell-based, Influenza A virus; conditions: neuraminidase fluorescence readout, read-out: % Inhibition
EN PA = EN PA (Influenza A virus, UniProt P15659); test: EN PA FRET Inhibition Assay; type: biochemical; conditions: read-out: Potency

In the case of C=Cc1cccc(C2(Cn3cc(O)c(=O)c(C(=O)NC)n3)CCCC2)c1 [Compound 738], the pEC50 ([1]; Influenza A virus, A549, 20 h) was > 4.70 and the pIC50 (EN PA) was > 7.00.
For CNC(=O)c1nn(CC2(n3cc(C)c4ccccc43)CCCC2)cc(O)c1=O [Compound 740], the pEC50 ([1]; Influenza A virus, A549, 20 h) was > 4.70 and the pIC50 (EN PA) was > 7.00.
For CCNC(=O)c1nn(CC2(n3cc(C)c4cccnc43)CCCC2)cc(O)c1=O [Compound 741], the pEC50 ([1]; Influenza A virus, A549, 20 h) was > 4.70 and the pIC50 (EN PA) was > 7.00.
In the case of CNC(=O)c1nn(CC2(n3cc(-c4ccccc4)c4cccnc43)CCCC2)cc(O)c1=O [Compound 742], the pEC50 [1] was > 4.70 and the pIC50 (EN PA) was > 7.00.
CNC(=O)c1nn(CC2(n3cc(Cl)c4cccnc43)CCCC2)cc(O)c1=O [Compound 743] was tested, and the pEC50 ([1]; Influenza A virus, A549, 20 h) was > 4.70 and the pIC50 (EN PA) was > 7.00.
For CCc1ccc(C2(Cn3cc(O)c(=O)c(C(=O)NC)n3)CCCC2)cc1 [Compound 747], the pEC50 ([1]; Influenza A virus, A549, 20 h) was > 4.70 and the pIC50 (EN PA) was > 7.00.
With CNC(=O)c1nn(CC2(c3cccc4ccccc34)CCCC2)cc(O)c1=O [Compound 749] the pEC50 ([1]; Influenza A virus, A549, 20 h) was > 4.70 and the pIC50 (EN PA) was > 7.00.
In the case of O=C(NCc1ccc(F)c(Cl)c1)c1nn(CC2(c3cccc(Cl)c3)CCCC2)cc(O)c1=O [Compound 750], the pEC50 ([1]; Influenza A virus, A549, 20 h) was > 4.70 and the pIC50 (EN PA) was > 7.00.
CNC(=O)c1nn(CC2(c3ccc(Cl)c(Cl)c3)CCCC2)cc(O)c1=O [Compound 752] was tested, and the pEC50 ([1]; Influenza A virus, A549, 20 h) was > 4.70 and the pIC50 (EN PA) was > 7.00.
For CCNC(=O)c1nn(CC2(n3cc(Cl)c4cccnc43)CCCC2)cc(O)c1=O [Compound 753], the pEC50 ([1]; Influenza A virus, A549, 20 h) was > 4.70 and the pIC50 (EN PA) was > 7.00.
For CNC(=O)c1nn(CC2(n3ccc4cc(C5CC5)cnc43)CCCC2)cc(O)c1=O [Compound 754], the pEC50 ([1]; Influenza A virus, A549, 20 h) was > 4.70 and the pIC50 (EN PA) was > 7.00.
For CCCc1cnc2c(ccn2C2(Cn3cc(O)c(=O)c(C(=O)NC)n3)CCCC2)c1 [Compound 755], the pEC50 ([1]; Influenza A virus, A549, 20 h) was > 4.70 and the pIC50 (EN PA) was > 7.00.
CCCNC(=O)c1nn(CC2(n3cc(C)c4cccnc43)CCCC2)cc(O)c1=O [Compound 756] was tested, and the pEC50 ([1]; Influenza A virus, A549, 20 h) was > 4.70 and the pIC50 (EN PA) was > 7.00.
Cc1cn(C2(Cn3cc(O)c(=O)c(C(=O)NCc4ccc(F)c(Cl)c4)n3)CCCC2)c2ncccc12 [Compound 757] was tested, and the pEC50 ([1]; Influenza A virus, A549, 20 h) was > 4.70 and the pIC50 (EN PA) was > 7.00.
For NC(=O)c1nn(CC2(n3cc(Cl)c4cccnc43)CCCC2)cc(O)c1=O [Compound 758], the pEC50 ([1]; Influenza A virus, A549, 20 h) was > 4.70 and the pIC50 (EN PA) was > 7.00.
Cc1cn(C2(Cn3cc(O)c(=O)c(C(=O)NCCCO)n3)CCCC2)c2ncccc12 [Compound 759] was tested, and the pEC50 ([1]; Influenza A virus, A549, 20 h) was > 4.70 and the pIC50 (EN PA) was > 7.00.
In the case of O=C(NCC1CC1)c1nn(CC2(n3cc(Cl)c4cccnc43)CCCC2)cc(O)c1=O [Compound 760], the pEC50 ([1]; Influenza A virus, A549, 20 h) was > 4.70 and the pIC50 (EN PA) was > 7.00.
For Cc1cn(C2(Cn3cc(O)c(=O)c(C(=O)NCCO)n3)CCCC2)c2ncccc12 [Compound 761], the pEC50 ([1]; Influenza A virus, A549, 20 h) was > 4.70 and the pIC50 (EN PA) was > 7.00.
For C=Cc1ccc(C2(Cn3cc(O)c(=O)c(C(=O)NC)n3)CCCC2)cc1 [Compound 762], the pEC50 ([1]; Influenza A virus, A549, 20 h) was > 4.70 and the pIC50 (EN PA) was > 7.00.
For CNC(=O)c1nn(CC2(n3cc(C)c4cccnc43)CCCC2)cc(OC(=O)OCC(C)C)c1=O [Compound 764], the pEC50 ([1]; Influenza A virus, A549, 20 h) was > 4.70 and the pIC50 (EN PA) was > 7.00.
For CNC(=O)c1nn(CC2(n3cc(C)c4cccnc43)CCCC2)cc(OC(=O)N(C)C)c1=O [Compound 765], the pEC50 ([1]; Influenza A virus, A549, 20 h) was 4.00 to 4.70 and the pIC50 (EN PA) was ≤ 6.00.
With CC(C)(C)NC(=O)c1nn(CC2(n3cc(Cl)c4cccnc43)CCCC2)cc(O)c1=O [Compound 766] the pEC50 ([1]; Influenza A virus, A549, 20 h) was > 4.70 and the pIC50 (EN PA) was > 7.00.
With CNC(=O)c1nn(CC2(c3cc(Cl)cc(C(F)(F)F)c3)CCCC2)cc(O)c1=O [Compound 768] the pEC50 ([1]; Influenza A virus, A549, 20 h) was > 4.70 and the pIC50 (EN PA) was > 7.00.
In the case of C[C@@H](NC(=O)c1nn(CC2(n3cc(Cl)c4cccnc43)CCCC2)cc(O)c1=O)C(F)(F)F [Compound 771], the pEC50 ([1]; Influenza A virus, A549, 20 h) was > 4.70 and the pIC50 (EN PA) was 6.00 to 7.00.
For C[C@H](NC(=O)c1nn(CC2(n3cc(Cl)c4cccnc43)CCCC2)cc(O)c1=O)C(F)(F)F [Compound 772], the pEC50 ([1]; Influenza A virus, A549, 20 h) was > 4.70 and the pIC50 (EN PA) was 6.00 to 7.00.
Cc1cn(C2(Cn3cc(O)c(=O)c(C(=O)N4CCC4)n3)CCCC2)c2ncccc12 [Compound 773] was tested, and the pEC50 ([1]; Influenza A virus, A549, 20 h) was > 4.70 and the pIC50 (EN PA) was > 7.00.
For CON(C)C(=O)c1nn(CC2(n3cc(C)c4cccnc43)CCCC2)cc(O)c1=O [Compound 774], the pEC50 ([1]; Influenza A virus, A549, 20 h) was > 4.70 and the pIC50 (EN PA) was > 7.00.
CCOC(=O)Oc1cn(CC2(n3cc(C)c4cccnc43)CCCC2)nc(C(=O)NC)c1=O [Compound 775] was tested, and the pEC50 ([1]; Influenza A virus, A549, 20 h) was > 4.70 and the pIC50 (EN PA) was > 7.00.
CNC(=O)c1nn(CC2(c3ccccc3)CCC(C)(C)C2)cc(O)c1=O (stereo not drawn) [Compound 776] was tested, and the pEC50 ([1]; Influenza A virus, A549, 20 h) was > 4.70 and the pIC50 (EN PA) was > 7.00.
CNC(=O)c1nn(CC2(c3ccc4ccccc4c3)CCCC2)cc(O)c1=O [Compound 777] was tested, and the pEC50 ([1]; Influenza A virus, A549, 20 h) was > 4.70 and the pIC50 (EN PA) was > 7.00.
In the case of CNC(=O)c1nn(CC2(c3ccccc3)CC(C)(C)C2)cc(O)c1=O [Compound 778], the pEC50 ([1]; Influenza A virus, A549, 20 h) was 4.00 to 4.70 and the pIC50 (EN PA) was > 7.00.
For Cc1c(O)c(=O)c(C(=O)O)nn1CCc1ccccc1 [Compound 782], the pEC50 ([1]; Influenza A virus, A549, 20 h) was < 4.00 and the pIC50 (EN PA) was > 7.00.
For CNC(=O)c1nn(CC2(c3ccc(F)c(C(F)(F)F)c3)CCCC2)cc(O)c1=O [Compound 783], the pEC50 ([1]; Influenza A virus, A549, 20 h) was > 4.70 and the pIC50 (EN PA) was > 7.00.
